Measurements: publication PMC3226715 (Chemical research in toxicology, 2011)

How the values were obtained:
[1] = tested on: GRd; settings: rat renal proximal tubule cells treated with DCVC; cited from earlier work
[2] = tested on: MDH; settings: rat liver mitochondria in the presence of DCVC; cited from earlier work
[3] = Half-life in the presence of GSH; type: physicochemical; settings: 0.31 mM compound, 1.02 mM GSH (3:10 molar ratio), phosphate buffer pH 7.4, 37°C
[4] = biological target: glutathione reductase (GRd) from baker's yeast (Saccharomyces cerevisiae, UniProt P41921); assay: Covalent modification of the model enzyme GRd, anti-biotin immunoblot; type: binding; settings: 10 µM NB-DCVCS, 3 h, 37°C, 0.5 mg/mL protein
[5] = biological target: T1, porcine heart mitochondrial malate dehydrogenase (MDH) (Sus scrofa, UniProt P00346); assay: Covalent modification of the model enzyme MDH, anti-biotin immunoblot; type: binding; settings: 10 µM NB-DCVCS, 3 h, 37°C, 0.5 mg/mL protein
T1 sequence (P00346 25-338): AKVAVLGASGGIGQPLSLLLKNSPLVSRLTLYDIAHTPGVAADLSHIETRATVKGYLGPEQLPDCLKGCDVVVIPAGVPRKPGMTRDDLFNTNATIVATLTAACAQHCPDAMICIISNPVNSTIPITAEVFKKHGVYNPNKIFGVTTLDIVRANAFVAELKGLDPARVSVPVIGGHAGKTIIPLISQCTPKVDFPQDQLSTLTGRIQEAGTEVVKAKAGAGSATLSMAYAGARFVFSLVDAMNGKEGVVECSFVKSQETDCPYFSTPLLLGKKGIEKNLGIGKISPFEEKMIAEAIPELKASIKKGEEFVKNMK

[6] = tested on: rat kidney cytosol proteins; assay: Binding of NB-DCVCS to kidney cytosolic proteins, anti-biotin immunoblot; parameters: species or system male Sprague Dawley rat; settings: 6 µg/µL cytosol, 3 h, 37°C
[7] = Stability in isolated rat plasma; type: in vitro ADME, male Sprague-Dawley rat; settings: 50 µM, 37°C
[8] = Stability in isolated rat whole blood; type: in vitro ADME, male Sprague-Dawley rat; settings: 50 µM, 37°C
[9] = Stability in phosphate buffer pH 7.4; type: physicochemical
[10] = Stability under acidic conditions; type: physicochemical; settings: 0.2 M HCl/KCl buffer pH 2, several hours at 37°C (data not shown)

Chain of glutathione reductase (GRd) from baker's yeast (P41921 whole entry): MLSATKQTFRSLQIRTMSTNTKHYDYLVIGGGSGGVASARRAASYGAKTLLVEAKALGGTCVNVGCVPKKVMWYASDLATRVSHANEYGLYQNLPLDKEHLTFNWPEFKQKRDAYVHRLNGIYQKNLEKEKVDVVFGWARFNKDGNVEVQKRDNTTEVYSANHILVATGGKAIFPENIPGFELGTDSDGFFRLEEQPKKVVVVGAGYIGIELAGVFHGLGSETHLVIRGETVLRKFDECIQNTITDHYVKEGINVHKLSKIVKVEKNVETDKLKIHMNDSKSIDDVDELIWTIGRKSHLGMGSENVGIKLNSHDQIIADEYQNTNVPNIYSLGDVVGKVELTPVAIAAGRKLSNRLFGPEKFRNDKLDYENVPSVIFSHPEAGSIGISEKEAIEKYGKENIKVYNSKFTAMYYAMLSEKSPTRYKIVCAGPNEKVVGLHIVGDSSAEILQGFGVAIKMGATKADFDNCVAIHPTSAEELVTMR

Row | Compound | GRd activity [1] | MDH activity [2] | half-life in the presence of GSH [3] | modification of glutathione reductase (immunoblot) [4] | modification of malate dehydrogenase (immunoblot) [5] | immunoblot signal of modified kidney cytosol proteins ([6]; 312.5 nM to 5 µM NB-DCVCS) | NB-DCVCS concentration at which modified proteins were detected [6] | DCVCS formation from NB-DCVCS (amide bond cleavage) in plasma [7] | half-life in plasma [7] | detection in plasma after 150 min ([7]; after 150 min) | DCVCS formation from NB-DCVCS (amide bond cleavage) in whole blood [8] | half-life in whole blood [8] | detection in whole blood after 150 min ([8]; after 150 min) | time stable in phosphate buffer ([9]; phosphate buffer, 37°C) | stability in phosphate buffer pH 7.4 ([9]; several hours at 37°C (data not shown)) | stability under acidic conditions [10]
1 | N[C@@H](CSC(Cl)=CCl)C(=O)O [DCVC] | inhibited | inhibited | – | – | – | – | – | – | – | – | – | – | – | – | – | –
2 | O=C(CCCC[C@@H]1SC[C@@H]2NC(=O)N[C@@H]21)N[C@@H](C[S+]([O-])C(Cl)=CCl)C(=O)O (stereo partly shown) [NB-DCVCS] | – | – | 39.6 min | extensively modified | extensively modified | concentration-dependent increases in signal and the number of bands | ≥ 625 nM | No DCVCS formation was observed | 40 min | not detectable | No DCVCS formation was observed | 68.5 min | not detectable | greater than 120 min | stable | stable
